Our source for the Activity values is ChEMBL document CHEMBL3627662, “Ligand-Orientation Based Fragment Selection in STD NMR Screening” (J Med Chem, 2015).

Assay [1] deals with T1, Peroxiredoxin-5, mitochondrial (Homo sapiens) (UniProt P30044).
T1 sequence (whole entry): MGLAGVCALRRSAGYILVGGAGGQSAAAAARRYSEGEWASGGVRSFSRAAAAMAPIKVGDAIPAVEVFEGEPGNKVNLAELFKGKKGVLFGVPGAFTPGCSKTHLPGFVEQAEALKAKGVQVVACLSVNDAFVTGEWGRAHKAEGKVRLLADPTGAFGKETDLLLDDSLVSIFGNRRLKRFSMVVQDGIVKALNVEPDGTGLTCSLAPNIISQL
The experiment in a line: Binding affinity to human PRDX5 expressed in Escherichia coli by STD NMR spectrometric analysis.

In assay [2] the target is T2, Glycogen phosphorylase, muscle form (Oryctolagus cuniculus) (UniProt P00489).
T2 sequence (whole entry): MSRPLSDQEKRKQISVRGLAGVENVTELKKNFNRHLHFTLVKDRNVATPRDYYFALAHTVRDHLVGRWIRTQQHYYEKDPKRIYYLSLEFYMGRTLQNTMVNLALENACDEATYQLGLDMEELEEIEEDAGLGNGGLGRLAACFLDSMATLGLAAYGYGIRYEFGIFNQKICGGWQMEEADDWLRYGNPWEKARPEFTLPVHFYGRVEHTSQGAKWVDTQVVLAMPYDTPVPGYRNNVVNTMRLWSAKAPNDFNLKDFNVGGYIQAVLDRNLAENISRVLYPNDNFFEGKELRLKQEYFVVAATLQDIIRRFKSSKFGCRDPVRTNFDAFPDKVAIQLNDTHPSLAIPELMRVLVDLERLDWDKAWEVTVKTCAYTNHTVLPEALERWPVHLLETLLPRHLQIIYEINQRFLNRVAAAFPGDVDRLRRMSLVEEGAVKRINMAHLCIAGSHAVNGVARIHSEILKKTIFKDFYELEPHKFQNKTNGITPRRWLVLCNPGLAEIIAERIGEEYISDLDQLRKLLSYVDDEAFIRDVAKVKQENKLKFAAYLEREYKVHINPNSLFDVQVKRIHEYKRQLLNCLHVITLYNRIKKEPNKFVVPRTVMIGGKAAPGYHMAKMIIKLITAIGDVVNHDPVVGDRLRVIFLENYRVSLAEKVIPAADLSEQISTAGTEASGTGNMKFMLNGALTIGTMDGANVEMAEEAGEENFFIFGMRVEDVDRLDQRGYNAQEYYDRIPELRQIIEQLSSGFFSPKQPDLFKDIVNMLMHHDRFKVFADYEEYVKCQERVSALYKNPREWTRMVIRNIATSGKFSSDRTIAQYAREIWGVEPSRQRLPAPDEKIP
The experiment in a line: Binding affinity to rabbit muscle glycogen phosphorylase by STD NMR spectrometric analysis.

In assay [3] the target is Mitogen-activated protein kinase 3 (Homo sapiens) (UniProt P27361). The experiment in a line: Binding affinity to ERK1 (unknown origin) expressed in Escherichia coli by STD NMR spectrometric analysis.
Chain of Mitogen-activated protein kinase 3 (Homo sapiens) (P27361 whole entry): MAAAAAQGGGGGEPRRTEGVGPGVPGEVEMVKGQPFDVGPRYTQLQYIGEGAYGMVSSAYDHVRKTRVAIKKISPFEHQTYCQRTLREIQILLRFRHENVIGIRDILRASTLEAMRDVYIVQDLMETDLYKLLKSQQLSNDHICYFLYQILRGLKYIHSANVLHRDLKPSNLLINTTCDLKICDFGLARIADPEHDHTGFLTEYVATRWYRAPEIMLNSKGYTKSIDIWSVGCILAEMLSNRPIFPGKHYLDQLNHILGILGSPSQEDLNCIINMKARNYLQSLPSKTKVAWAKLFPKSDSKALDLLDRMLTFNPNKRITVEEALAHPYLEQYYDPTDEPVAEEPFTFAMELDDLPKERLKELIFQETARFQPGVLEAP
Assay [4] concerns the target T1, Peroxiredoxin-5, mitochondrial (Homo sapiens). The experiment in a line: Binding affinity to human PRDX5 expressed in Escherichia coli at ligand/protein ratio 50 and 240 measured over 2 secs by STD NMR spectrometric analysis.
Assay [5] shares this target. The assay is described as follows: Binding affinity to human PRDX5 expressed in Escherichia coli at ligand/protein ratio 120 measured over 0.5 to 4 secs by STD NMR spectrometric analysis.
Assay [6] addresses T2, Glycogen phosphorylase, muscle form (Oryctolagus cuniculus). The assay is described as follows: Binding affinity to rabbit muscle glycogen phosphorylase measured for 0.5 to 4 secs by STD NMR spectrometric analysis.

The structures appear in SMILES notation. The source made the active and inactive calls. The rule behind the calls is not given here.

Take `Oc1ccccc1Cc1ccccc1O`: the outcome in assay [1] was Active. As to `Oc1ccccc1-c1ccccc1`, the outcome in assay [2] was Active. Take `c1cnc2[nH]ccc2c1`: the result in assay [3] and in assay [2] was Active. Take `Nc1nc2ncnc-2c[nH]1`: in assay [2], the outcome was Active. In the case of `Cc1ccc(O)c(O)c1`, the outcome in assay [4] and in assay [5] was Active.

Consider `c1ccc2[nH]ccc2c1`, for which, in assay [6], the result was Active. For `O=C(O)c1cnc2ccccc2c1`, the outcome in assay [2] was Active.
